From US20240343699A1, “DERIVATIVES OF SUBSTITUTED MORPHOLINES AND USES THEREOF” (Supernus Pharmaceuticals, Inc., priority 2023, published 2024)
Structures can show the parent of a compound that is named as a salt.

What was measured:
rat red blood cells = test: Hemolysis in rat blood; assay type: cell-based; conditions: rat blood, 60 min exposure; read-out: EC50 (% RBC lysis)
Method: Stability of Test Articles at Different pH Values. 10 mM stock solutions of COMPOUND A were prepared in DMSO. From this stock solution, a single concentration in a 10 μL aliquot was added to three fluid matrices: SGF at pH 2.0 (gastric), SIF at pH 6.0 (upper intestine), and PBS at 7.4 (systemic). The final volume was 1 mL (0.1 mM). The preparations were then incubated at 37° C. and samples were collected at 0, 15, 30, 60, and 120 min for analysis of parent material by LC/MS/MS. The collected sample was quenched in acetonitrile/0.1% formic acid mixture. Red Blood Cell (RBC): Human and rat blood were centrifuged to separate out red blood cells at […] for 15 min. The upper plasma level was aspirated with a micropipette and placed in a bleach solution for disposal. The RBC pellet was resuspended in sterile isotonic saline. The pellet was gently resuspended by rocking the tube. The sample was then centrifuged again to collect the RBC pellet and then resuspended and washed one more time following the same procedure. A total of three was done. Following the last wash and centrifugation, the RBCs were resuspended with PBS; and mixed by inversion. Aliquots of the resuspended and washed RBCs were then placed into 4 reaction tubes. These tubes were centrifuged to collect the RBCs. The fluid level was marked on each tube, then the supernatant was aspirated off and the cells resuspended with room temperature PBS pH 7.4 to the original mark. An aliquot of the RBC suspension was added to four sterile tubes containing PBS pH 7.4 at room temperature.
Stability in Human and Rat Red Blood cells and Hemolysis. […] After centrifugation, 70 μL of supernatant (without disturbing the pellet) was transferred to a clean and clear polystyrene flat bottomed 96-well plate and the absorbance of the sample at a single wavelength was measured using a Bio Tech Synergy Hl Plate Reader at a wavelength of 410 nm. […] Stability was measured by measuring loss of parent compound using LC/MS/MS.

recognition memory [1] = test: Spontaneous novel object recognition (NOR), 48 hr retention interval; assay type: in vivo, male Wistar rats; conditions: donepezil 2.0 mg/kg i.p., 48 hr delay
immobility = test: Tail suspension test (TST); conditions: imipramine 15 mg/kg IP, vs vehicle (p=0.01)
Method: The tail suspension test is an experimental method used in scientific research to measure a state of being helpless in rodents, especially in mice. It is based on the observation that if a mouse is subjected to short term inescapable stress then the mouse will stop struggling. Immobility is quantified by measuring the amount of time lacking whole body activity.
The immobilized time in the last 4 min of the TST, which indicated depression-like behavior, was quantified using offline video manual scoring in a blinded manner.
Animals. Adult (7 to 8 weeks) male mice (C57Bl/6, Charles River Laboratories) were used in the study. Upon arrival, animals were group-housed (5/cage) with access to food and water ad libitum. Animals were maintained on a 12/12-hour light/dark cycle in a temperature—(22±2° C.) and humidity—(approx. 50%) controlled room. Animals were numbered consecutively by tail marks. Each cage was identified by a card indicating the study number, sex, animal numbers and date of birth.
Test article formulations were prepared fresh based on weight-to-volume in the vehicle on each dosing day. […] The appearance of the formulations was clear, with no precipitations. […] A vehicle group was included for comparison.
Monitoring. A piezoelectric sensor operated by the SmartCage system was utilized and video recording was conducted for scoring. After animals acclimated to the testing room, an individual mouse's tail was placed onto the piezoelectric sensor-board and the mouse was hung upside down, which signaled the immediate start of the recording of struggle activity, and it lasted for 6 min. The mouse was then taken off and returned to the home cage. The immobilized time, indicating depression-like behavior, was quantified using manual scoring of the video recordings for the period from 120 seconds to 360 seconds during TST. The percent immobility time was calculated: (immobility time/240 seconds)*100.
The immobilized time in the last 4 min of the TST, which indicates depression-like behavior, was quantified using offline video manual scoring in a blinded manner.
Animals. Adult (8 weeks, approximately 20-25 g) male mice (C57Bl/6, Vendor: Charles River Laboratories) were used in the study. Upon arrival, animals were group-housed (5/cage) with access to food and water ad libitum. Animals were maintained on a 12/12-hour light/dark cycle in a temperature—(22±2° C.) and humidity—(35-50%) controlled room. Animals were numbered consecutively by tail ID. Each cage was identified by a colored card indicating the study number, sex, animal numbers and date of birth.
Test article formulations were prepared fresh based on weight-to-volume in the vehicle on dosing day. […] The appearance of the formulations was clear, with no precipitations.
The tail suspension test is an experimental method used in scientific research to measure a state of being helpless in rodents, especially in mice. It is based on the observation that if a mouse is subjected to short term inescapable stress then the mice will give up struggling. “Immobility” is quantified by measuring the amount of time during which the animal has no whole-body activity.
Tail Suspension Test (TST). A piezoelectric sensor operated by the SmartCage system was utilized and video recording was conducted for scoring. Once animals were acclimated to the testing room, the TST was initiated by placing the tail of the test mouse onto the piezoelectric sensor-board and hanging the mouse upside down. The recording period was initiated once the mouse was upside down and lasted for 6 min. After the recording period, the mouse was removed from the recording device and returned to its home cage.

recognition memory [2] = test: Novel object recognition, scopolamine-impairment model, 3 hr retention interval

**Q.** How did the EC50 (rat red blood cells) turn out when C[C@@H]1[C@H](O)[C@@H](C)/C=C/C=C/C=C/C=C/C=C/C=C/C=C/[C@H](O[C@@H]2O[C@H](C)[C@@H](O)[C@H](N)[C@@H]2O)C[C@@H]2O[C@](O)(C[C@@H](O)C[C@@H](O)[C@H](O)CC[C@@H](O)C[C@@H](O)CC(=O)O[C@H]1C)C[C@H](O)[C@H]2C(=O)O [amphotericin B, reference compound] was run?
**A.** 4.73 µM

**Q.** COc1cc2c(cc1OC)C(=O)C(CC1CCN(Cc3ccccc3)CC1)C2 (stereo not drawn) [donepezil, reference compound] was tested. Which “preference for the novel object (exploration times)” value (recognition memory [1]) did it give?
**A.** significant preference for the novel object

**Q.** CN(C)CCCN1c2ccccc2CCc2ccccc21 [imipramine, reference compound] was tested. Which percent immobility time (immobility) did it give?
**A.** significantly reduced immobility time

**Q.** How did the “d2 ratios vs vehicle-controls” value (recognition memory [2]; vehicle-scopolamine 0.2 mg/kg i.p.) turn out when CN1[C@@H]2C[C@@H](OC(=O)[C@H](CO)c3ccccc3)C[C@H]1[C@@H]1O[C@@H]12 [scopolamine, (−)-scopolamine hydrobromide] was run?
**A.** significantly impaired compared to the vehicle-controls

**Q.** How did the “memory enhancement (attenuation of the scopolamine impairment)” value (recognition memory [2]; vortioxetine 10 mg/kg s.c. + scopolamine 0.2 mg/kg i.p., 3 hr delay) turn out when Cc1ccc(Sc2ccccc2N2CCNCC2)c(C)c1 [vortioxetine] was run?
**A.** not associated with significant memory enhancement

**Q.** What about the adverse reactions (recognition memory [2]; vortioxetine-scopolamine combination, three of the twelve rats, A/A session) of the same molecule?
**A.** adverse reactions during the A/A session (thigmotaxis, vocalizations, labored breathing)
